Measurements: patent US4446151A, “Decarboxylase-inhibiting fluorinated pentane diamine derivatives” (Merrell Toraude et Compagnie, priority 1982, dated 1984)

Target: T1, ornithine decarboxylase (ODC) (Rattus norvegicus, UniProt P09057)
T1 construct: is prepared from the livers of rats which have been injected with thioacetamide; from tissue; host or cells: liver of rats injected with thioacetamide (150 mg/kg, 18 h before sacrifice); purified about ten fold by acid treatment at pH 4.6
T1 sequence (P09057 1-461): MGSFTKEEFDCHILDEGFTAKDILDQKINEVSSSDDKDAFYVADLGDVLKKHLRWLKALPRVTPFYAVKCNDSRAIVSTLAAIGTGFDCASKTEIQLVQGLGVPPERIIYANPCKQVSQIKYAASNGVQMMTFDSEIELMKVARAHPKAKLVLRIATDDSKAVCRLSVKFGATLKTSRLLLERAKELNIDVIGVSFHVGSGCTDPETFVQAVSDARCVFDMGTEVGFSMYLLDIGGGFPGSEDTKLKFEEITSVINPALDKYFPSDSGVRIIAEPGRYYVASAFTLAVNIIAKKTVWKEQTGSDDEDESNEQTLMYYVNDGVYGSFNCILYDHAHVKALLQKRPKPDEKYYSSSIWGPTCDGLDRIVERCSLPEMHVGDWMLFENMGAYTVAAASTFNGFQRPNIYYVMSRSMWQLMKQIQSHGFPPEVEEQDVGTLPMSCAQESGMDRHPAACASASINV
Assay: in vitro inhibition (time-dependent inactivation) of ornithine decarboxylase (ODC) prepared from rat liver
Assay type: biochemical
Conditions: 37° C.; for .tau.50 (half-life, at infinite concentration of inhibitor): pH 7.1, Kitz and Wilson; for Half-life (t1/2) at 10 μM: inhibitor at 10 μM, pH 7.1
Protocol: At different times 50 μl aliquots are transferred into a 1 mL assay medium containing sodium phosphate (30 mM, pH 7.1), dithiothreitol (5 mM), pyridoxal phosphate (0.1 mM), L-ornithine (0.081 μmol), and DL-[1-^14 C]ornithine (0.043 μmol, 58 Ci/mol, Amersham) in a closed vessel in which a filter paper moistered with 50 μl hyamine hydroxide (1M) is fitted. The reaction is allowed to proceed for 60 min at 37° C. and then terminated by addition of 0.5 ml of 40% trichloroacetic acid. After an additional 30 min, the CO2 absorbed on the filter paper is counted in a standard scintillation cocktail.

Structure (SMILES)	.tau.50 (half-life, at infinite concentration of inhibitor) [min]	Half-life (t1/2) at 10 μM [min]
NCC(=O)CC(N)CF (stereo not shown) [C, 1-fluoro-2,5-diamino-4-oxo-pentane]	1.6	2.8
C=C(CN)CC(N)C(F)F (stereo not shown) [E, 1,1-difluoro-2,5-diamino-4-methylene-pentane]	2.2	14
C=C(CN)CC(N)CF (stereo not shown) [B, 1-fluoro-2,5-diamino-4-methylene-pentane]	2.6	6.4
NCC(=O)CC(N)(CF)C(=O)O (stereo not shown) [A, 2-fluoromethyl-2,5-diamino-4-oxo-pentanoic acid]	3.1	4.5
C=C(CN)CC(N)(CF)C(=O)O (stereo not shown) [D, 2-fluoromethyl-2,5-diamino-4-methylene-pentanoic acid]	3.6	23
